Reference: US11007232B2, “Use of neural cells derived from human pluripotent stem cells for the treatment of neurodegenerative diseases” (priority 2013, dated 2021)

Test system: DA neuron precursor cells
Experiment: Differentiation of DA neuron precursor cells into DA neurons with guggulsterone, FACS for TH
Format: cell-based, human
Settings: guggulsterone 2.5 μM for two weeks; after 30 days of differentiation
Protocol: The DA neuron precursor cells were plated at 2000 cells/well of a 96-well plate and treated with guggulsterone (GS) at 2.5 μM for two weeks. After 30 days of differentiation, GS-treated neurons appeared mature with elaborate neurite extensions. At this stage, the derived cells expressed not only the major neuronal marker β-III-tubulin (TUJ1), but also the important DA neuron markers tyrosine hydroxylase (TH), the dopamine transporter (Dat), Foxa2, Nurr-1, and Girk2. […] The method specifically involved treating both hESC-H9-NSCs (Invitrogen) and hPSC-NSCs with Purmorphamine (2 μM) and FGF8 (100 ng/mL) in NB medium [NeuroBasal medium, 1× GlutaMAX, 1× N2/B27 Supplement (Invitrogen)] for 7 days. […] Two weeks after treatment with small molecules, all wells were visually observed and scored based on neurite density and dopamine release. For measuring neurite density, cells were fixed with 4% paraformaldehyde and phase contrast images were acquired using Cellavista Cell Imaging System (Roche Applied Science) from randomly selected fields. Neurite density was measured using the Cellavista density software image processing program. Each experimental condition was done in duplicate wells, and at least three independent experiments were conducted to acquire the final results.

In the case of `C/C=C1\C(=O)C[C@H]2[C@@H]3CCC4=CC(=O)CC[C@]4(C)[C@H]3CC[C@]12C` [guggulsterone], the “cells gated TH positive (FACS analysis)” value is reported as “more than 97%”.
